Results taken from patent US20260116868A1 (Arcus Biosciences, Inc., priority 2023, published 2026).

Target: T1, Cbl-b (Homo sapiens, UniProt Q13191)
T1 construct: biotin (biotinylated protein)
Experiment: Cbl-b probe displacement HTRF binding assay
Conditions: 0.4 nM Cbl-b, 150 nM BODIPY probe
Protocol: The affinity with which compounds of the present disclosure bind to Cbl-b was assessed using probe displacement homologous time resolved fluorescence (HTRF) assays. The assays used a BODIPY™ conjugated probe (Example 54 from WO 2020264398) and biotinylated Cbl-b. The assays were performed in assay buffer consisting of 20 mM Hepes, 150 mM NaCl, 0.01% Triton X-100, 0.5 mM TCEP, 0.01% BSA. On the day of the assay, a 20 point, 1:2 master serial dilution of each compound was prepared in DMSO to span a final concentration range of […] to 0 nM. Two hundred nanoliters of diluted compound was added to each well of a 384-well plate. Fifteen microliters of biotinylated- Cbl-b resuspended in assay buffer were added to each well and the plate incubated for 60 minutes at room temperature prior to addition of 5 μL of BODIPY™ probe in assay buffer. Final assay conditions included 0.4 nM of Cbl-b and 150 nM of BODIPY™ probe. After a further 15 minutes of incubation at room temperature, 5 μl of Streptavidin-Terbium cryptate reagent at 5-fold final concentration was added to each well of the 384-well plate. Binding of a probe to Cbl-b results in an increase of HTRF signal. HTRF signal was measured by Envision plate reader, while competition of a compound of the present disclosure with probe results in a decrease of signal. Percentage maximum activity in each test well was calculated based on DMSO (maximum activity, 0% displacement) and no protein control wells (baseline activity, 100% displacement). Binding affinity was determined from a dose response curve fitted using a standard four parameter fit equation. See Table 7 for data for compounds (Cbl-b Binding (IC50)).

T1 sequence (Q13191 whole entry, species assumed): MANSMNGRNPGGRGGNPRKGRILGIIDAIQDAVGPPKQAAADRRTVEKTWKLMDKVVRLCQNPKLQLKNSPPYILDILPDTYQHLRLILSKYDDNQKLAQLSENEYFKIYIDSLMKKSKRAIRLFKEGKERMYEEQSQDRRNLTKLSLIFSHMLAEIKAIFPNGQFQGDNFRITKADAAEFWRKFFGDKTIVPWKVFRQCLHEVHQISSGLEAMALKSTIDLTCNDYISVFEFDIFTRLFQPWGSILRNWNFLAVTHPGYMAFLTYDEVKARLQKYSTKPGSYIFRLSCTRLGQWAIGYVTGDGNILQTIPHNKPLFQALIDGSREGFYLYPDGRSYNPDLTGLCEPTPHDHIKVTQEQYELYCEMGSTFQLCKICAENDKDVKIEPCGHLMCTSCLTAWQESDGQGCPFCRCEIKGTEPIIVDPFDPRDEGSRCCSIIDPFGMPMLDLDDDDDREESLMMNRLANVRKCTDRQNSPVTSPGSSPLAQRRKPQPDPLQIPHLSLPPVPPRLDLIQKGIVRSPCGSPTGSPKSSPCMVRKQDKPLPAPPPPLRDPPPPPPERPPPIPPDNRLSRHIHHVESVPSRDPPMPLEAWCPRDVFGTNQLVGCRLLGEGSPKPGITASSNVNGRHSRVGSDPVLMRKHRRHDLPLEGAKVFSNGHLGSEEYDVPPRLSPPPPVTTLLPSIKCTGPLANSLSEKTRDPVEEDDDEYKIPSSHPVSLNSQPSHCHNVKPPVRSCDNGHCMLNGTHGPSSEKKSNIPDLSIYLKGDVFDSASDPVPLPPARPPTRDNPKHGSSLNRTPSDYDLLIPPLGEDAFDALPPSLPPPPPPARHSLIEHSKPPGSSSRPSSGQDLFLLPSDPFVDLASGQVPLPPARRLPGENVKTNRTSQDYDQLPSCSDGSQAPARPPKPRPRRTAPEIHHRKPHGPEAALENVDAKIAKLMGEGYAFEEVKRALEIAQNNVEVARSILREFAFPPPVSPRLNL

Row | Compound | IC50 [nM]
1 | CCOc1cc(-c2ccc(OC(F)F)cc2C(=O)N2CC(F)(F)C2)cc(NC(=O)c2cc(CNC[C@H](C)OC)cn(C3CC3)c2=O)n1 [Example 331] | < 100
2 | CC1(CNCc2cc(C(=O)Nc3cc(-c4ccc(C#N)cc4C(=O)N4CC(F)(F)C4)cc(C4CC4)n3)c(=O)n(C3CC3)c2)CC1 [Example 385] | < 100
3 | CO[C@@H](C)CNCc1cc(C(=O)Nc2cc(-c3ccc(F)cc3C(=O)N3CC(F)(F)C3)cc(OC(C)C)n2)c(=O)n(C)c1 [Example 387] | < 100
4 | COC[C@H](C)NC(C)c1cc(C(=O)Nc2cc(-c3ccc(C#N)cc3C(=O)N3CC(F)(F)C3)cc(C3CC3)n2)c(=O)n(C2CC2)c1 (stereo partly drawn) [Example 335] | < 100
5 | CO[C@@H](C)CNCc1cc(C(=O)Nc2cc(-c3ccc(C#N)cc3C(=O)N3CC(F)(F)C3)cc(OCC(F)F)n2)c(=O)n(C2CC2)c1 [Example 131, N-(4-{4-cyano-2-[(3,3-difluoro-1-azetidinyl)carbonyl]phenyl}-6-(2,2-difluoroethoxy)-2-pyridyl)-1-cyclopropyl-5-{[(S)-2-methoxypropylamino]methyl}-2-oxo-1,2-dihydronicotinamide] | < 100
6 | N#Cc1ccc(-c2cc(NC(=O)c3cc(CNC[C@@H]4CCCO4)cn(C4CC4)c3=O)nc(OCF)c2)c(C(=O)N2CC(F)(F)C2)c1 [Example 344] | < 100
7 | CO[C@@H](C)CNCc1cc(C(=O)Nc2cc(-c3c(F)cc(C#N)cc3C(=O)N3CC(F)(F)C3)cc(OC(C)C)n2)c(=O)n(C)c1 [Example 235] | < 100
8 | CCOc1cc(-c2c(F)cc(C#N)cc2C(=O)N2CC(F)(F)C2)cc(NC(=O)c2cc(CNC[C@@H]3CCCO3)cn(C)c2=O)n1 [Example 118, N-[4-[4-cyano-2-(3,3-difluoroazetidine-1-carbonyl)-6-fluorophenyl]-6-ethoxypyridin-2-yl]-1-methyl-2-oxo-5-[[[(2S)-oxolan-2-yl]methylamino]methyl]pyridine-3-carboxamide] | < 100
9 | CO[C@@H](C)CNCc1cc(C(=O)Nc2cc(-c3ccc(C(F)F)cc3C(=O)N3CC(F)(F)C3)cc(C3CC3)n2)c(=O)n(C2CC2)c1 [Example 300] | < 100
10 | CO[C@@H](C)CNCc1cc(C(=O)Nc2cc(-c3ccc(F)cc3C(=O)N3CC(F)(F)C3)cc(OC(C)C)n2)c(=O)n(C2CC2)c1 [Example 137, N-(4-{2-[(3,3-difluoro-1-azetidinyl)carbonyl]-4-fluorophenyl}-6-isopropoxy-2-pyridyl)-1-cyclopropyl-5-{[(S)-2-methoxypropylamino]methyl}-2-oxo-1,2-dihydronicotinamide] | < 100
11 | CC(C)Oc1cc(-c2ccc(OC(F)F)cc2C(=O)N2CC(F)C2)cc(NC(=O)c2cc(CN[C@@H](C)C3CCC3)cn(C3CC3)c2=O)n1 [Example 249] | < 100
12 | CO[C@@H](C)CNCc1cc(C(=O)Nc2cc(-c3ccc(C#N)cc3C(=O)N3CC(F)(F)C3)cc(OC3CC3)n2)c(=O)n(C2CC2)c1 [Example 195] | < 100
13 | CO[C@@H](C)CNCc1cc(C(=O)Nc2cc(-c3ccc(OC(F)F)cc3C(=O)N3CC(F)C3)cc(OC(C)C)n2)c(=O)n(C2CC2)c1 [Example 252] | < 100
14 | C[C@H](N[C@H](C)c1cc(C(=O)Nc2cc(-c3ccc(C#N)cc3C(=O)N3CC(F)(F)C3)cc(C3CC3)n2)c(=O)n(C2CC2)c1)C1CC1 [Example 323] | < 100
15 | Cc1ccc(-c2cc(NC(=O)c3cc(CNCC(C)C)cn(C4CC4)c3=O)nc(OC(C)C)c2)c(C(=O)N2CC(F)C2)c1 [Example 287] | < 100
16 | CC(C)Oc1cc(-c2ccc(OC(F)F)cc2C(=O)N2CC(F)(F)C2)cc(NC(=O)c2cc(CN[C@@H](C)C3CC3)cn(C)c2=O)n1 [Example 115, N-(4-{2-[(3,3-difluoro-1-azetidinyl)carbonyl]-4-difluoromethoxyphenyl}-6-isopropoxy-2-pyridyl)-5-{[(S)-1-cyclopropylethylamino]methyl}-1-methyl-2-oxo-1,2-dihydronicotinamide] | < 100
17 | CCOc1cc(-c2ccc(Cl)cc2C(=O)N2CC(F)(F)C2)cc(NC(=O)c2cc(CNCC3(F)CCC3)cn(C3CC3)c2=O)n1 [Example 121, N-(4-{4-chloro-2-[(3,3-difluoro-1-azetidinyl)carbonyl]phenyl}-6-ethoxy-2-pyridyl)-1-cyclopropyl-5-({[(1-fluorocyclobutyl)methyl]amino}methyl)-2-oxo-1,2-dihydronicotinamide] | < 100
18 | Cn1cc(CNC[C@@H]2COCCO2)cc(C(=O)Nc2cc(-c3ccc(OC(F)F)cc3C(=O)N3CC(F)(F)C3)cc(C3CC3)n2)c1=O [Example 110, N-(6-cyclopropyl-4-{2-[(3,3-difluoro-1-azetidinyl)carbonyl]-4-difluoromethoxyphenyl}-2-pyridyl)-5-[({[(R)-1,4-dioxan-2-yl]methyl}amino)methyl]-1-methyl-2-oxo-1,2-dihydronicotinamide] | < 100

Row | Compound | IC50 [nM]
19 | CO[C@@H](C)CNC(C)c1cc(C(=O)Nc2cc(-c3ccc(C#N)cc3C(=O)N3CC(F)(F)C3)cc(C3CC3)n2)c(=O)n(C2CC2)c1 (stereo partly drawn) [Example 324] | < 100
20 | CO[C@@H](C)CNCc1cc(C(=O)Nc2cc(-c3c(F)cc(F)cc3C(=O)N3CC(F)(F)C3)cc(C3CC3)n2)c(=O)n(C2CC2)c1 [Example 367] | < 100
21 | CCOc1cc(-c2ccc(Cl)cc2C(=O)N2CC(F)(F)C2)cc(NC(=O)c2cc(CNC[C@@H]3CCCO3)cn(C3CC3)c2=O)n1 [Example 225] | < 100
22 | CO[C@@H](C)CNCc1cc(C(=O)Nc2cc(-c3ccc(Cl)cc3C(=O)N3CC(C)(F)C3)cc(C3CC3)n2)c(=O)n(C2CC2)c1 [Example 158, N-(4-{4-Chloro-2-[(3-fluoro-3-methyl-1-azetidinyl)carbonyl]phenyl}-6-cyclopropyl-2-pyridyl)-1-cyclopropyl-5-{[(S)-2-methoxypropylamino]methyl}-2-oxo-1,2-dihydronicotinamide] | < 100
23 | CC(C)Oc1cc(-c2ccc(C#N)cc2C(=O)N2CC(F)(F)C2)cc(NC(=O)c2cc(CN[C@@H](C)C3CCC3)cn(C3CC3)c2=O)n1 [Example 143, N-(4-{4-cyano-2-[(3,3-difluoro-1-azetidinyl)carbonyl]phenyl}-6-isopropoxy-2-pyridyl)-5-{[(S)-1-cyclobutylethylamino]methyl}-1-cyclopropyl-2-oxo-1,2-dihydronicotinamide] | < 100
24 | CO[C@@H](C)CNCc1cc(C(=O)Nc2cc(-c3ccc(OC(F)F)cc3C(=O)N3CC(F)C3)cc(OC(C)C)n2)c(=O)n(C)c1 [Example 263] | < 100
25 | CC(C)CNCc1cc(C(=O)Nc2cc(-c3c(F)cc(C#N)cc3C(=O)N3CC(F)(F)C3)cc(C3CC3)n2)c(=O)n(C2CC2)c1 [Example 230] | < 100
26 | C[C@H](NCc1cc(C(=O)Nc2cc(-c3ccc(C#N)cc3C(=O)N3CC(F)(F)C3)cc(C3CC3)n2)c(=O)n(C)c1)[C@@H]1CCCO1 [Example 354] | < 100
27 | CCOc1cc(-c2c(F)cc(Cl)cc2C(=O)N2CC(F)(F)C2)cc(NC(=O)c2cc(CN[C@@H](C)[C@H](C)OC)cn(C3CC3)c2=O)n1 [Example 203] | < 100
28 | O=C(Nc1cc(-c2ccc(Cl)cc2C(=O)N2CC(F)(F)C2)cc(C2CC2)n1)c1cc(CNCC2CCC2)cn(C2CC2)c1=O [Example 370] | < 100
29 | N#Cc1ccc(-c2cc(NC(=O)c3cc(CNC4CCCC4)cn(C4CC4)c3=O)nc(C3CC3)c2)c(C(=O)N2CC(F)(F)C2)c1 [Example 397] | < 100
30 | C[C@H](NCc1cc(C(=O)Nc2cc(-c3c(F)cc(C#N)cc3C(=O)N3CC(F)(F)C3)cc(C3CC3)n2)c(=O)n(C2CC2)c1)C1CCC1 [Example 218] | < 100
31 | O=C(Nc1cc(-c2ccc(Cl)cc2C(=O)N2CC(F)(F)C2)cc(C2CC2)n1)c1cc(CNC[C@@H]2CCCO2)cn(C2CC2)c1=O [Example 378] | < 100
32 | O=C(Nc1cc(-c2ccc(OC(F)F)cc2C(=O)N2CC(F)(F)C2)cc(C2CC2)n1)c1cc(CNC[C@@H]2COCCO2)cn(C2CC2)c1=O [Example 379] | < 100
33 | CCOc1cc(-c2ccc(Cl)cc2C(=O)N2CC(F)(F)C2)cc(NC(=O)c2cc(CN[C@@H](C)COC)cn(C3CC3)c2=O)n1 [Example 238] | < 100
34 | CO[C@@H](C)CNCc1cc(C(=O)Nc2cc(-c3ccc(Cl)cc3C(=O)N3CC4(COC4)C3)cc(C3CC3)n2)c(=O)n(C2CC2)c1 [Example 160, N-(4-{4-Chloro-2-[(2-oxa-6-aza-6-spiro[3.3]heptyl)carbonyl]phenyl}-6-cyclopropyl-2-pyridyl)-1-cyclopropyl-5-{[(S)-2-methoxypropylamino]methyl}-2-oxo-1,2-dihydronicotinamide] | < 100
35 | N#Cc1ccc(-c2cc(NC(=O)c3cc(CNCC4CC4)cn(C4CC4)c3=O)nc(C3CC3)c2)c(C(=O)N2CC(F)(F)C2)c1 [Example 383] | < 100
36 | CCn1cc(CNC[C@@H]2CCCO2)cc(C(=O)Nc2cc(-c3ccc(C#N)cc3C(=O)N3CC(F)(F)C3)cc(C3CC3)n2)c1=O [Example 186] | < 100
